Key:
EB - DNA = test: Competitive binding with ethidium bromide: fluorescence quenching of EB - DNA; conditions: quenching of EB-DNA emission, F0/F vs [complex]/[DNA], λex 450 nm
From the text: The complexes 1 and 2 are non-emissive in nature. […] In this study, changes in the intensity of the fluorescence emission band of EB - DNA complex were monitored after the addition of metal complexes 1 and 2 (Fig. 2). Upon increasing complex concentration in the DNA-EB solution, EB emission intensity was decreased. […] The resulting data (Table 1) of the complexes 1 and 2 with EB-DNA was processed from the standard Stern-Volmer equation[38], F0/F=1+Ksvr where F0 and F are the fluorescence emission intensities in the absence and presence of quencher (i.e. complexes 1 and 2), r is the ratio of concentration of the quencher. Ksv is the Stern-Volmer quenching constant.
For fluorescence quenching experiments, nucleic acids solution was pretreated with ethidium bromide (EB) for 30 min. Solutions of cobalt(III) complexes were then added to this mixture and their effect on the emission intensity was measured. The samples were excited at 450 nm and emission was observed between 500 and 750 nm.

A549 cells [1] = test: Cell cycle analysis by flow cytometry; type: cell-based, Human; conditions: A549, IC50 concentrations, 24 h, propidium iodide, compared to control
Method: The possible cell cycle arrest was determined by flow cytometer which is used to distinguish and quantify the cells in different phases of the cell cycle. The cells were treated with the complexes 1 and 2 at the respective half maximal inhibitory concentrations. The cells were fixed, stained with propidium iodide and analysed for DNA/cell content as aspects of cell cycle distribution. The DNA histograms and the percentage of cells in each of the phases are given Fig. 5. […] The increase of cell accumulation in sub G0 - G1 phase indicated delay in progression of cell cycle. The cells thus inhibited in division end up in the apoptosis due to sub G0 − G1 check point arrest. […] In as much as apoptosis itself could be induced due to the DNA damage, necrosis is a clear indication of damage caused by the complexes to the cytosol.
Cell cycle analysis: Cell phase distribution was determined by flow cytometry with DNA staining to reveal the total amount of DNA[94]. […] After incubation, the cells were trypsinized, harvested, fixed in 1 mL 80% cold ethanol and incubated at 4 °C for 15 min. […] Cell cycle distribution was analyzed using FACS (fluorescent activated cell sorter) (Becton-Dickinson, Sanjose, CA, USA) with 15 mW, 488 nm argon ion laser. […] The data were acquired and analyzed using Dean-Jett-Fox algorithm.

A549 cells [2] = conditions: A549, respective IC50 concentrations, 24 h
Method: AO/EB Staining of A549 cells: The mode of cell death induced by the complexes was deciphered using acridine orange (AO) and ethidium bromide (EB) staining protocol. Cells were cultured in 6 well plates, treated with the complexes and allowed for 24 h. Then the cells were incubated with AO and EB solutions (1 part of 100 μg/mL AO and 1 part of 100 μg/mL of EB in PBS) and examined in a fluorescent microscope (Carl Zeiss, Jena, Germany) using a UV filter (450–490 nm). Three hundred cells per sample were counted in triplicate for each dose point. The cells were scored as viable, apoptotic and necrotic as judged by the staining pattern, nuclear morphology and cytoplasmic integrity. The percentage of apoptotic and necrotic cells were calculated and the morphological changes were also photographed.

A549 lung carcinoma cell = test: MTT assay on A549 cells; conditions: A549 cell, 24 h
From the text: The anti-proliferative property of the complexes 1 and 2 at different concentrations on A549 lung carcinoma cell and monkey kidney epithelial cell Vero was examined by adopting MTT assay (Fig. S7). […] The naked cobalt acetate and ligands salen and salophen were separately tested on A549 cells to understand if metal chelation is the principal basis of the anticancer activity of the complexes.
Culture: Human lung cancer cells (A549) were received from National Centre for Cell Science (NCCS) Pune, India. Vero cells were obtained from ATCC. The cells were grown at humidified atmosphere of 5% CO2 in an incubator at 37 °C (Forma, Thermo Scientific, USA) in DMEM medium (Invitrogen) containing 10% FBS (Sigma-Aldrich, St. Louis, Mo, USA), 100 μg/mL of penicillin and 100 μg/mL streptomycin were used as antibiotics (Himedia, Mumbai, India). […] The cells were seeded in 96 well plates (5000 A549 cells per well) and allowed to attach for 24 h. The cells were then incubated with different concentrations of the metal complexes 1 and 2 dissolved in 100% dimethyl sulfoxide (DMSO) (Sigma-Aldrich) and prepared to a final dilution of 0.02% of DMSO.
In the determination of IC50 value, 0.02% DMSO was used as the solvent control. After the end of incubation period (24 h), the medium was aspirated carefully and replaced with new medium. The formazan formed was dissolved in100 μL of 100% DMSO to each well. The absorbance was monitored at 570 nm using a 96 well plate reader (Bio-Rad, Hercules, California, USA). All experiments were repeated for a minimum of three times when each experiment was done in two replicates.

| SMILES | Stern–Volmer constant (Ksv) (EB - DNA) | effect on cell cycle distribution (A549 cells [1]) | mode of cell death (AO/EB staining) (A549 cells [2]) | IC50 (A549 lung carcinoma cell) [µM] |
| --- | --- | --- | --- | --- |
| CCCCCCCCCCCC[NH2+][Co-3]123([NH2+]CCCCCCCCCCCC)[O]c4ccccc4C=[N+]1c1ccccc1[N+]2=Cc1ccccc1[O]3.[O-][Cl+3]([O-])([O-])[O-] [Complex 2, trans-[Co(salophen)(DA)2](ClO4)] | 0.6067 | gradual increase in sub G0 − G1 and G2 − M phases | most of the cells succumbed to apoptosis and a few to necrosis | 65 |
| CCCCCCCCCCCC[NH2+][Co-3]123([NH2+]CCCCCCCCCCCC)[O]c4ccccc4C=[N+]1CC[N+]2=Cc1ccccc1[O]3.[O-][Cl+3]([O-])([O-])[O-] [Complex 1, trans-[Co(salen)(DA)2](ClO4)] | 0.5694 | gradual increase in sub G0 − G1 and G2 − M phases | most of the cells succumbed to apoptosis and a few to necrosis | 80 |
